How the values were obtained:
[1] = chromatographic, C18 column, same gradient; cited from earlier work
[2] = system: carboxypeptidase; assay: Carboxypeptidase treatment of albusnodin; type: in vitro ADME; details: reports on threaded state, Fig. S9

Substance | HPLC elution time (used as indication of polarity) [1] | Resistance to carboxypeptidase cleavage [2]
astexin-3 | around 14 minutes | –
astexin-2 | around 14 minutes | –
albusnodin | – | resistant to carboxypeptidase cleavage
astexin-1 | around 14 minutes | –
microcin J25 (GGAGHVPEYFVGIGTPISFYG; not fully specified; Microcin J25 lasso peptide; UniProt Q9X2V7 38-58, looked up) | around 17 minutes | –

Reference: PMC5835390 (Chemical communications (Cambridge, England), 2018)
